Laboratory results from patent US20230085307A1, “PYRIDAZINONE COMPOUND AND HERBICIDE” (NISSAN CHEMICAL CORPORATION, priority 2019, published 2023).

Assays:
late watergrass = assay: Test Example 2: herbicidal activity, application during weed generation under submerged conditions (Table 17, symbol A); type: in vivo, late watergrass (Echinochloa oryzicola); settings: AAH 320 g/ha; application during weed generation, submerged conditions
How it was run: (§1)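 Herbicide emulsion, diluted with water to the chosen amount, is applied onto 4 cm floodwater over alluvial soil where the weeds were co-sown and raised at 25–30° C. Application timing: 1–2 leaves. Assessment: three weeks afterwards.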

Japanese bulrush = assay: Test Example 2: herbicidal activity, application during weed generation under submerged conditions (Table 17, symbol B); type: in vivo, Japanese bulrush (Schoenoplectus juncoides); settings: AAH 320 g/ha; application during weed generation, submerged conditions
How it was run: as §1

oval-leafed pondweed = assay: Test Example 2: herbicidal activity, application during weed generation under submerged conditions (Table 17, symbol C); type: in vivo, oval-leafed pondweed (Monochoria vaginalis); settings: AAH 320 g/ha; application during weed generation, submerged conditions
How it was run: as §1

barnyard grass [1] = assay: Test Example 3: herbicidal effect by foliage application, Wagner pot (Table 18, symbol H); type: in vivo, barnyard grass (Echinochloa crus-galli); settings: 320 g/ha
How it was run: (§2)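 Plants were sown in alluvial soil held under 0.1–0.5 cm standing water and grown 14 days in a greenhouse at 25–30 °C. An emulsifiable formulation, water-diluted to the set dose, was then sprayed onto the foliage, and effects were scored three weeks later using previously defined criteria.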

Chinese sprangletop = assay: Test Example 3: herbicidal effect by foliage application, Wagner pot (Table 18, symbol D); type: in vivo, chinese sprangletop (Leptochloa chinensis); settings: 320 g/ha
How it was run: as §2

rice flat sedge = assay: Test Example 3: herbicidal effect by foliage application, Wagner pot (Table 18, symbol E); type: in vivo, rice flat sedge (Cyperus iria); settings: 320 g/ha
How it was run: as §2

southern crabgrass [2] = assay: Test Example 4: herbicidal effect by soil treatment (Table 19, symbol F); type: in vivo, southern crabgrass (Digitaria ciliaris); settings: amount of applied herbicide 320 g/ha
How it was run: (§3)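 Applied as a water-diluted emulsion, the compound was sprayed onto soil covering newly sown seeds. Evaluation came three weeks after application, in a greenhouse held at 25° C. to 30° C.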

green foxtail [3] = assay: Test Example 4: herbicidal effect by soil treatment (Table 19, symbol G); type: in vivo, green foxtail (Setaria viridis); settings: amount of applied herbicide 320 g/ha
How it was run: as §3

barnyard grass [4] = assay: Test Example 4: herbicidal effect by soil treatment (Table 19, symbol H); type: in vivo, barnyard grass (Echinochloa crus-galli); settings: amount of applied herbicide 320 g/ha
How it was run: as §3

wild oat [5] = assay: Test Example 4: herbicidal effect by soil treatment (Table 19, symbol I); type: in vivo, wild oat (Avena fatua); settings: amount of applied herbicide 320 g/ha
How it was run: as §3

blackgrass [6] = assay: Test Example 4: herbicidal effect by soil treatment (Table 19, symbol J); type: in vivo, blackgrass (Alopecurus myosuroides); settings: amount of applied herbicide 320 g/ha
How it was run: as §3

Italian ryegrass [7] = assay: Test Example 4: herbicidal effect by soil treatment (Table 19, symbol K); type: in vivo, Italian ryegrass (Lolium multiflorum); settings: amount of applied herbicide 320 g/ha
How it was run: as §3

windgrass [8] = assay: Test Example 4: herbicidal effect by soil treatment (Table 19, symbol L); type: in vivo, windgrass (Apera spica-venti); settings: amount of applied herbicide 320 g/ha
How it was run: as §3

velvetleaf [9] = assay: Test Example 4: herbicidal effect by soil treatment (Table 19, symbol M); type: in vivo, velvetleaf (Abutilon theophrasti); settings: amount of applied herbicide 320 g/ha
How it was run: as §3

redroot pigweed [10] = assay: Test Example 4: herbicidal effect by soil treatment (Table 19, symbol N); type: in vivo, redroot pigweed (Amaranthus retroflexus); settings: amount of applied herbicide 320 g/ha
How it was run: as §3

lambsquarters [11] = assay: Test Example 4: herbicidal effect by soil treatment (Table 19, symbol O); type: in vivo, lambsquarters (Chenopodium album); settings: amount of applied herbicide 320 g/ha
How it was run: as §3

chickweed [12] = assay: Test Example 4: herbicidal effect by soil treatment (Table 19, symbol P); type: in vivo, common chickweed (Stellaria media); settings: amount of applied herbicide 320 g/ha
How it was run: as §3

persian speedwell [13] = assay: Test Example 4: herbicidal effect by soil treatment (Table 19, symbol R); type: in vivo, Persian speedwell (Veronica persica); settings: amount of applied herbicide 320 g/ha
How it was run: as §3

southern crabgrass [14] = assay: Test Example 5: herbicidal effect by foliage application, plastic box (Table 20, symbol F); type: in vivo, southern crabgrass (Digitaria ciliaris); settings: 320 g/ha, foliage application after 14-day growth, evaluated three weeks after application
How it was run: (§4)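 Sow seeds spot-wise in sterilized diluvial soil; cover with ~1.5 cm soil. Grow 14 days in greenhouse, 25° C. to 30° C. Spray foliage with emulsion diluted to predetermined amount. Rate effect after 3 weeks.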

green foxtail [15] = assay: Test Example 5: herbicidal effect by foliage application, plastic box (Table 20, symbol G); type: in vivo, green foxtail (Setaria viridis); settings: 320 g/ha, foliage application after 14-day growth, evaluated three weeks after application
How it was run: as §4

barnyard grass [16] = assay: Test Example 5: herbicidal effect by foliage application, plastic box (Table 20, symbol H); type: in vivo, barnyard grass (Echinochloa crus-galli); settings: 320 g/ha, foliage application after 14-day growth, evaluated three weeks after application
How it was run: as §4

wild oat [17] = assay: Test Example 5: herbicidal effect by foliage application, plastic box (Table 20, symbol I); type: in vivo, wild oat (Avena fatua); settings: 320 g/ha, foliage application after 14-day growth, evaluated three weeks after application
How it was run: as §4

blackgrass [18] = assay: Test Example 5: herbicidal effect by foliage application, plastic box (Table 20, symbol J); type: in vivo, blackgrass (Alopecurus myosuroides); settings: 320 g/ha, foliage application after 14-day growth, evaluated three weeks after application
How it was run: as §4

Italian ryegrass [19] = assay: Test Example 5: herbicidal effect by foliage application, plastic box (Table 20, symbol K); type: in vivo, Italian ryegrass (Lolium multiflorum); settings: 320 g/ha, foliage application after 14-day growth, evaluated three weeks after application
How it was run: as §4

windgrass [20] = assay: Test Example 5: herbicidal effect by foliage application, plastic box (Table 20, symbol L); type: in vivo, windgrass (Apera spica-venti); settings: 320 g/ha, foliage application after 14-day growth, evaluated three weeks after application
How it was run: as §4

velvetleaf [21] = assay: Test Example 5: herbicidal effect by foliage application, plastic box (Table 20, symbol M); type: in vivo, velvetleaf (Abutilon theophrasti); settings: 320 g/ha, foliage application after 14-day growth, evaluated three weeks after application
How it was run: as §4

redroot pigweed [22] = assay: Test Example 5: herbicidal effect by foliage application, plastic box (Table 20, symbol N); type: in vivo, redroot pigweed (Amaranthus retroflexus); settings: 320 g/ha, foliage application after 14-day growth, evaluated three weeks after application
How it was run: as §4

lambsquarters [23] = assay: Test Example 5: herbicidal effect by foliage application, plastic box (Table 20, symbol O); type: in vivo, lambsquarters (Chenopodium album); settings: 320 g/ha, foliage application after 14-day growth, evaluated three weeks after application
How it was run: as §4

chickweed [24] = assay: Test Example 5: herbicidal effect by foliage application, plastic box (Table 20, symbol P); type: in vivo, common chickweed (Stellaria media); settings: 320 g/ha, foliage application after 14-day growth, evaluated three weeks after application
How it was run: as §4

persian speedwell [25] = assay: Test Example 5: herbicidal effect by foliage application, plastic box (Table 20, symbol R); type: in vivo, Persian speedwell (Veronica persica); settings: 320 g/ha, foliage application after 14-day growth, evaluated three weeks after application
How it was run: as §4

CCCC(=O)Oc1c(C)nn(C)c(=O)c1-c1c(-c2ccccc2OC)sc2c(F)cccc12 [4-004]
herbicidal effect rating, A: late watergrass (late watergrass): 3 (Herbicidal rate of 40% or more and less than 70%)
herbicidal effect rating, B: Japanese bulrush (Japanese bulrush): 0 (Herbicidal rate of 5% or less (almost no effect))
herbicidal effect rating, C: oval-leafed pondweed (oval-leafed pondweed): 2 (Herbicidal rate of 20% or more and less than 40%)
herbicidal effect on barnyard grass (H) (barnyard grass [1]): 4 (Herbicidal rate of 70% or more and less than 90%)
herbicidal effect on Chinese sprangletop (D) (Chinese sprangletop): 3 (Herbicidal rate of 40% or more and less than 70%)
herbicidal effect on rice flat sedge (E) (rice flat sedge): 4 (Herbicidal rate of 70% or more and less than 90%)
Herbicidal effect by soil treatment, F: southern crabgrass (southern crabgrass [2]): 0 (Herbicidal rate of 5% or less (almost no effect))
Herbicidal effect by soil treatment, G: green foxtail (green foxtail [3]): 0 (Herbicidal rate of 5% or less (almost no effect))
Herbicidal effect by soil treatment, H: barnyard grass (barnyard grass [4]): 1 (Herbicidal rate of 5% or more and less than 20%)
Herbicidal effect by soil treatment, I: wild oat (wild oat [5]): 0 (Herbicidal rate of 5% or less (almost no effect))
Herbicidal effect by soil treatment, J: blackgrass (blackgrass [6]): 0 (Herbicidal rate of 5% or less (almost no effect))
Herbicidal effect by soil treatment, K: Italian ryegrass (Italian ryegrass [7]): 0 (Herbicidal rate of 5% or less (almost no effect))
Herbicidal effect by soil treatment, L: windgrass (windgrass [8]): 0 (Herbicidal rate of 5% or less (almost no effect))
Herbicidal effect by soil treatment, M: velvetleaf (velvetleaf [9]): 0 (Herbicidal rate of 5% or less (almost no effect))
Herbicidal effect by soil treatment, N: redroot pigweed (redroot pigweed [10]): 3 (Herbicidal rate of 40% or more and less than 70%)
Herbicidal effect by soil treatment, O: lambsquarters (lambsquarters [11]): 3 (Herbicidal rate of 40% or more and less than 70%)
Herbicidal effect by soil treatment, P: chickweed (chickweed [12]): 1 (Herbicidal rate of 5% or more and less than 20%)
Herbicidal effect by soil treatment, R: persian speedwell (persian speedwell [13]): 0 (Herbicidal rate of 5% or less (almost no effect))
herbicidal effect on F: southern crabgrass (evaluation grade 0-5) (southern crabgrass [14]): 3 (Herbicidal rate of 40% or more and less than 70%)
herbicidal effect on G: green foxtail (evaluation grade 0-5) (green foxtail [15]): 4 (Herbicidal rate of 70% or more and less than 90%)
herbicidal effect on H: barnyard grass (evaluation grade 0-5) (barnyard grass [16]): 3 (Herbicidal rate of 40% or more and less than 70%)
herbicidal effect on I: wild oat (evaluation grade 0-5) (wild oat [17]): 0 (Herbicidal rate of 5% or less (almost no effect))
herbicidal effect on J: blackgrass (evaluation grade 0-5) (blackgrass [18]): 0 (Herbicidal rate of 5% or less (almost no effect))
herbicidal effect on K: Italian ryegrass (evaluation grade 0-5) (Italian ryegrass [19]): 0 (Herbicidal rate of 5% or less (almost no effect))
herbicidal effect on L: windgrass (evaluation grade 0-5) (windgrass [20]): 0 (Herbicidal rate of 5% or less (almost no effect))
herbicidal effect on M: velvetleaf (evaluation grade 0-5) (velvetleaf [21]): 4 (Herbicidal rate of 70% or more and less than 90%)
herbicidal effect on N: redroot pigweed (evaluation grade 0-5) (redroot pigweed [22]): 5 (Herbicidal rate of 90% or more (almost completely withered))
herbicidal effect on O: lambsquarters (evaluation grade 0-5) (lambsquarters [23]): 2 (Herbicidal rate of 20% or more and less than 40%)
herbicidal effect on P: chickweed (evaluation grade 0-5) (chickweed [24]): 5 (Herbicidal rate of 90% or more (almost completely withered))
herbicidal effect on R: persian speedwell (evaluation grade 0-5) (persian speedwell [25]): 4 (Herbicidal rate of 70% or more and less than 90%)
